According to US8114594B2, “Crude biological derivatives competent for nucleic acid detection” (Applied Biosysyems, LLC, priority 2004, dated 2012):

Key:
[1] = cited from earlier work
[2] = system: tissue plasminogen activator (t-PA); test: Monitoring drug treatment: t-PA mRNA by one step real-time RT-PCR from HeLa cell lysate; type: cell-based, human; conditions: 24 hours
Protocol: HeLa cells were seeded DME media with 10% FBS in each of three wells in a 12-well tissue culture plate (Nalge Nunc International, Cat. #150628) at 125,000 cells/well. After an overnight incubation, phorbol myristate acetate (PMA) was added to final concentrations of 10, 1 and 0 nM in the growth medium. The cells were incubated at 37° C. for 24 hours. The medium was removed and the cells washed with PBS. The cells were incubated with 0.05% trypsin in 0.53 mM EDTA for 10 minutes at 37° C. to detach the cells. Cells were counted and concentration was determined. Cells were centrifuged at 800×g for 5 minutes. The medium was removed and the cells were washed once with PBS. Each cell pellet was suspended in PBS to obtain a stock solution of 10000 cells/μl. A five-fold serial dilution of the stock solution with PBS was carried out to give 10000, 2000 and 400 cells/0.10 μl of each dilution was added to 90 μl of Buffer at room temperature such that the final cell concentrations in the lysate were 1000, 200 and 40 cells/μl. The samples were gently shaken at room temperature (˜21° C.) for 1 to 2 min. As in EXAMPLE 1, cell lysate of 30% of the final reaction volume was added to a one step real-time RT-PCR reaction with primers and TaqMan probe for tissue plasminogen activator (t-PA) and 18S rRNA (EXAMPLE 8). The t-PA primer and probe sequences were as follows: Forward primer, 5′-[…]-3′ (SEQ ID NO. 34); Reverse primer, 5′-[…]-3′ (SEQ ID NO. 35); TaqMan Probe: 5′-(FAM)-[…]-(TAMRA)-3′ (SEQ ID NO. 36).

SMILES	pKa [1]	also measured
CC(=O)NCCC(=O)O [β-acetylaminopropionic acid]	4.4	
O=C(O)c1cccc(Br)c1 [3-bromobenzoic acid]	3.8	
CC[C@H](C)[C@H](N)C(=O)O [isoleucine]	2.3	
O=C(O)c1ccc([N+](=O)[O-])cc1 [4-nitrobenzoic acid]	3.4	
C[C@H](NC(N)=O)C(=O)O [N-carbamoylalanine]	3.9	
Nc1ccccc1S(=O)(=O)O [2-aminobenzenesulfonic acid]	2.5	
CCC(CC)C(=O)O [2-ethylbutyric acid]	4.8	
O=C(O)c1ccco1 [2-furancarboxylic acid]	3.2	
Cc1cc(C)c(C(=O)O)c(C)c1 [2,4,6-trimethylbenzoic acid]	3.4	
CCCCCCCCCCCCCC(=O)O[C@@H]1[C@@H](C)[C@@]2(O)[C@@H](C=C(CO)C[C@]3(O)C(=O)C(C)=C[C@@H]23)[C@@H]2C(C)(C)[C@]12OC(C)=O [PMA, phorbol myristate acetate]		t-PA (fold increase compared to 0 nM PMA) ([2]; lysate 40 cells/μl, PMA 1 nM): 16 fold; t-PA (fold increase compared to 0 nM PMA) ([2]; lysate 40 cells/μl, PMA 10 nM): 147 fold; t-PA (fold increase compared to 0 nM PMA) ([2]; lysate 200 cells/μl, PMA 1 nM): 9 fold; t-PA (fold increase compared to 0 nM PMA) ([2]; lysate 200 cells/μl, PMA 10 nM): 62 fold; t-PA (fold increase compared to 0 nM PMA) ([2]; lysate 1000 cells/μl, PMA 1 nM): 8 fold; t-PA (fold increase compared to 0 nM PMA) ([2]; lysate 1000 cells/μl, PMA 10 nM): 39 fold
CC(=O)N[C@@H](C)C(=O)O [N-acetylalanine]	3.7	
Cc1cc(C)c(C)c(C(=O)O)c1C [2,3,5,6-tetramethylbenzoic acid]	3.5	
CCCC(N)C(=O)O (stereo not drawn) [2-aminopentanoic acid]	2.3	
O=C(O)C#CCl [chloropropynoic acid]	1.85	
CC(C)(C)c1cccc(C(=O)O)c1 [3-tert-butylbenzoic acid]	4.2	
CC(C)C(C(=O)O)C(=O)O [isopropylmalonic acid]	2.4	
CC(=O)NCC(=O)O [N-acetylglycine]	3.7	
O=C(O)c1c(O)ccc2ccccc12 [2-hydroxy-1-naphthoic acid]	3.3	
N#CCC(=O)O [cyanoacetic acid]	2.5	
Nc1ccc(S(=O)(=O)O)cc1 [4-aminobenzenesulfonic acid]	3.2	
CC(C)(N)C(=O)O [2-amino-2-methylpropionic acid]	2.4	
CC(C)(C#N)C(=O)O [2-cyano-2-methylpropionic acid]	2.4	
CCC(C)C(N)C(=O)O (stereo not drawn) [2-amino-3-methylpentanoic acid]	2.3	
CCC(=O)NCC(=O)O [N-propionylglycine]	3.7	
Nc1cccc(S(=O)(=O)O)c1 [3-aminobenzenesulfonic acid]	3.7	
